Source: ChEMBL document CHEMBL6134863, “Novel Mitochondria-Targeted Asymmetric Heptamethine Cyanine Dye for Cancer Targeted NIR Imaging and Potent Necrosis and Senescence Induction with Prolonged Retention” (J Med Chem, 2025)
The source made the active and inactive calls. No cut-off for these calls is given here.

What was measured:
[1] = Antioxidant activity of compound in presence of SO4; type: functional
[2] = Stability of compound at 30 degreeC by thermogravimetric analysis; type: physicochemical
[3] = Drug uptake in human NCI-H226 cells assessed as increase in red fluorescence intensity at 5 uM incubated for 30 mins by CY7 staining based microscopic analysis; type: ADME, cell-based; settings: nci-h226, 0.5 h
[4] = Antioxidant activity of compound in presence of NH4+; type: functional
[5] = Stability of compound in DMSO-H2O incubated for 1 hr by absorbance based analysis; type: physicochemical
[6] = Antioxidant activity of compound in presence of TBHP; type: functional
NCI-H226 [7] = assay: Induction of DNA damage in human NCI-H226 cells assessed as increase in gamma-H2AX level at 5 uM incubated for 24 hrs by immunofluorescence analysis; type: functional, cell-based
NIH3T3 = assay: Cytotoxicity against mouse 3T3 cells assessed as decrease in cell viability up to 5 uM incubated for 24 hrs by CCK-8 assay; type: toxicity, cell-based; settings: nih3t3, 24 h
[8] = Antioxidant activity of compound in presence of ONOO-; type: functional
[9] = Antioxidant activity of compound in presence of RNS; type: functional
[10] = Drug localization in mitochondria of human NCI-H226 cell by MitoTracker Red based NIR confocal microscopic analysis; type: ADME
[11] = Antioxidant activity of compound in presence of HSO3-; type: functional
[12] = Drug accumulation in BALB/c mouse plasma xenografted with human NCI-H520 cells assessed as increase in fluorescence intensity at 0.5 mg/kg, iv measured at 96 to 120 hrs by imaging based analysis; type: ADME, organism-based; settings: in vivo, time 96-120 hrs
4T1 = assay: Antitumor activity against mouse 4T1 cells implanted in BALB/c mouse assessed as tumor growth inhibition 5 mg/kg, iv measured for 11 days; type: functional; settings: 4T1, 264 h, time 11 day, read-out: TGI
[13] = Antioxidant activity of compound in presence of HCO3-; type: functional
[14] = Acute toxicity in BALB/c mouse implanted with mouse 4T1 cells assessed as change in body weight at 5 mg/kg, iv measured for 11 days; type: organism-based; settings: in vivo, 264 h, time 11 day
[15] = Antioxidant activity of compound in presence of Cl-; type: functional
[16] = Toxicity in BALB/c mouse implanted with mouse 4T1 cells assessed as heart damage at 5 mg/kg, iv measured for 11 days by H and E staining based analysis; type: organism-based; settings: in vivo, 264 h, time 11 day
[17] = Distribution coefficient, logD of compound; type: physicochemical; settings: octanol/water
[18] = Antioxidant activity of compound in presence of Ca2+; type: functional
NCI-H226 [19] = assay: Induction of apoptosis in human NCI-H226 cells assessed as viable cells at 5 uM incubated for 48 hrs by Annexin V-FITC/PI staining based flow cytometry (reference value: 93.4 %); type: functional; settings: read-out: Activity
[20] = system: Squamous carcinoma cell line; assay: Antitumor activity against patient-derived Squamous carcinoma cell line xenografted in BALB/c mouse assessed as tumor growth inhibition at 0.5 mg/kg, iv measured for 5 days; type: functional, organism-based; settings: Homo sapiens, time 5.0 day
[21] = Drug uptake in human NCI-H226 cells assessed as increase in green fluorescence intensity at 5 uM incubated for 30 mins by F-actin staining staining based microscopic analysis; type: ADME, cell-based; settings: nci-h226, 0.5 h
[22] = Antioxidant activity of compound in presence of OH; type: functional
NCI-H226 [23] = assay: Induction of ROS production in human NCI-H226 cells at 5 uM incubated for 24 hrs by flow cytometry analysis; type: functional, cell-based
[24] = Antioxidant activity of compound in presence of HCHO; type: functional
[25] = Cytotoxicity against human Primary lung fibroblast assessed as decrease in cell viability up to 10 uM incubated for 24 hrs by CCK-8 assay; type: toxicity, cell-based
[26] = Antioxidant activity of compound in presence of L-Cysteine; type: functional
[27] = Solubility of compound in DMSO-H2O; type: physicochemical
[28] = Antioxidant activity of compound in presence of Fe3+; type: functional
[29] = Toxicity in BALB/c mouse implanted with mouse 4T1 cells assessed as survival rate at 5 mg/kg, iv measured for 11 days; type: organism-based; settings: in vivo, time 11 day
NCI-H226 [30] = assay: Cytotoxicity against human NCI-H226 assessed as decrease in cell viability up to 10 uM incubated for 24 hrs by CCK-8 assay; type: functional, cell-based
[31] = Drug uptake in mouse 4T1 cells assessed as increase in red fluorescence intensity at 5 uM incubated for 30 mins by CY7 staining based microscopic analysis; type: ADME, cell-based; settings: 4t1, 0.5 h
[32] = Antioxidant activity of compound in presence of ClO-; type: functional
[33] = Drug accumulation in BALB/c mouse tumor implanted with mouse 4T1 cells assessed as increase in fluorescence intensity at 0.5 mg/kg, iv measured at 48 hrs by imaging based analysis; type: ADME, organism-based, Neoplasm; settings: in vivo
[34] = Antioxidant activity of compound in presence of RSS; type: functional
NCI-H226 [35] = assay: Induction of apoptosis in human NCI-H226 cells assessed as necrotic cells at 5 uM incubated for 48 hrs by Annexin V-FITC/PI staining based flow cytometry (reference value: 0.048 %); type: functional
[36] = Stability of compound in DMSO-H2O incubated for 150 mins by absorbance based analysis; type: physicochemical; settings: 2.5 h
[37] = Antioxidant activity of compound in presence of ROS; type: functional
[38] = Toxicity in BALB/c mouse implanted with patient-derived Squamous carcinoma cell line assessed as change in body weight at 0.5 mg/kg, iv measured for 5 days; type: organism-based; settings: in vivo, 120 h, time 5 day
[39] = Antioxidant activity of compound in presence of Glutathione; type: functional
[40] = Antioxidant activity of compound in presence of H2O2-; type: functional
NCI-H226 [41] = assay: Induction of apoptosis in human NCI-H226 cells assessed as early apoptotic cells at 5 uM incubated for 48 hrs by Annexin V-FITC/PI staining based flow cytometry (reference value: 2.93 %); type: functional
NCI-H226 [42] = assay: Induction of apoptosis in human NCI-H226 cells assessed as late apoptotic cells at 5 uM incubated for 48 hrs by Annexin V-FITC/PI staining based flow cytometry (reference value: 3.61 %); type: functional
[43] = Drug uptake in human NCI-H226 cells assessed as increase in fluorescence intensity incubated for 24 hrs by fluorescence based microscopic analysis; type: ADME, cell-based; settings: nci-h226, 24 h
[44] = Ratio of drug level in tumor to muscle of BALB/c mouse implanted with mouse 4T1 cells at 0.5 mg/kg, iv measured at 12 to 24 hrs; type: ADME, organism-based; settings: in vivo, time 12-24 hrs
[45] = Antioxidant activity of compound in presence of Br-; type: functional
[46] = Acute toxicity in BALB/c mouse implanted with mouse 4T1 cells at 5 mg/kg, iv measured for 11 days; type: organism-based; settings: in vivo, 264 h, time 11 day
Mitochondrial membrane = assay: Induction of mitochondrial membrane potential loss in human NCI-H226 cells; type: cell membranes
[47] = Cytotoxicity against human Primary lung fibroblast assessed as decrease in cell viability up to 5 uM incubated for 24 hrs by CCK-8 assay; type: toxicity, cell-based

For `CCCN1/C(=C/C=C2\CCCC(/C=C/C3=[N+](Cc4ccc(C(=O)O)cc4)c4ccccc4C3(C)C)=C2Cl)C(C)(C)c2ccccc21.[Br-]`, the Activity [1] was “Active”, the Stability [2] was “Stable” and the Drug uptake [3] was “Active”. The Activity [4] was “Active”, the Stability [5] was “Stable” and the Activity [6] was “Active”. The Activity (NCI-H226 [7]) was “Active”, the Activity (NIH3T3) was > 80% and the Activity [8] was “Active”. The Activity [9] was “Active”, the Drug uptake [10] was “Active” and the Activity [11] was “Active”. For the same compound, the Drug uptake [12] was “Active”, the inhibition in vivo at 5 mg/kg (4T1) was ~60% and the Activity [13] was “Active”. The Activity [14] was “Non-toxic”, the Activity [15] was “Active” and the Activity [16] was “Non-toxic”. For the same compound, the logD [17] was 4.49, the Activity [18] was “Active” and the viability at 5 µM (NCI-H226 [19]) was 26.3%. The TGI [20] was “Active”, the Drug uptake [21] was “Active” and the Activity [22] was “Active”. The Activity (NCI-H226 [23]) was “Active”, the Activity [24] was “Active” and the Activity [25] was “Non-toxic”. For the same compound, the Activity [26] was “Active”, the solubility [27] was 170 µg/mL and the Activity [28] was “Active”. For the same compound, the survival at 264 h [29] was 100%, the Activity (NCI-H226 [30]) was “Active” and the Drug uptake [31] was “Active”. For the same compound, the Activity [32] was “Active”, the Drug uptake [33] was “Active” and the Activity [34] was “Active”. The Activity (NCI-H226 [35]) was 58.9%, the Stability [36] was “Stable” and the Activity [37] was “Active”. For the same compound, the Activity [38] was “Non-toxic”, the Activity [39] was “Active” and the Activity [40] was “Active”. The Activity (NCI-H226 [41]) was 0.82%, the Activity (NCI-H226 [42]) was 14% and the Drug uptake [43] was “Active”. The Ratio [44] was > 5, the Activity [45] was “Active” and the Activity [46] was “Non-toxic”. For the same compound, the Activity (Mitochondrial membrane) was “Active” and the Activity [47] was “Non-toxic”.
